Assay results published in patent publication US20230295234A1, “ANTIMICROBIAL PEPTIDOMIMETICS” (SPEXIS AG, priority 2020, published 2023).
Peptide text beside a SMILES is read from it.

Columns and labels:
[1] = system: Escherichia coli ATCC 25922; details: ATCC 25922
How it was run: (§1)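 Standardized inocula (0.5 McFarland in saline, then diluted in MHII broth to approximately 5×10^5 CFU/mL) were exposed to two-fold dilution series of each peptide in the presence of polysorbate 80 (0.002% final).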

[2] = system: Escherichia coli MCR-1 Af 45; details: Mueller-Hinton broth II, 18-20 hours at 35° C.
How it was run: as §1

[3] = system: Klebsiella pneumoniae SSI3010; details: SSI3010
How it was run: as §1

[4] = system: human red blood cells (hRBC); test: Hemolysis of human red blood cells; format: cell-based; details: red cells of human, 1 h
How it was run: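 Percent hemolysis is OD540 of peptide-treated supernatant relative to water-lysed cells. Each peptide was tested at 200 μg/mL against 20% (v/v) washed human erythrocytes. Incubation was 1 h at 37 °C, 300 rpm.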

**Q.** Which results are given for `CC[C@H](C)[C@H](NC(=O)[C@@H]1C[C@@H](O)CN1C(=O)[C@@H](N)C(C)C)C(=O)N[C@H](C(=O)N[C@@H](Cc1ccc(O)cc1)C(=O)N[C@@H]1C(=O)N[C@@H](CC(N)=O)C(=O)N[C@@H](CCCNC(=N)N)C(=O)N[C@@H](CCN)C(=O)N[C@@H]([C@@H](C)O)C(=O)N[C@H](CCN)C(=O)N[C@@H](CCCCN)C(=O)N[C@H](C(=O)N[C@@H](CCN)C(=O)N[C@@H](CC(C)C)C(=O)N[C@@H](Cc2ccc(O)cc2)C(=O)O)CSSC1(C)C)[C@@H](C)O` [Example 175] (HELM PEPTIDE1{V.[Hyp].I.T.Y.[Pen].N.R.[Dab].T.[NCC[C@@H](N[*:1])C(=O)[*:2]].K.C.[Dab].L.Y}$PEPTIDE1,PEPTIDE1,6:R3-13:R3$$$V2.0)?
**A.** Escherichia coli ATCC 25922 MIC [1]: 0.25 µg/mL; Escherichia coli MCR-1 Af 45 MIC [2]: 0.25 µg/mL; Klebsiella pneumoniae SSI3010 MIC [3]: 0.5 µg/mL; Hemolysis at 0.2 g/L [4]: 0%

**Q.** How did the “Escherichia coli ATCC 25922 MIC” value [1] turn out when `CC[C@H](C)[C@H](NC(=O)[C@@H]1C[C@@H](O)CN1C(=O)[C@@H](N)C(C)C)C(=O)N[C@H](C(=O)N[C@@H](Cc1ccc(O)cc1)C(=O)N[C@@H]1C(=O)N[C@@H](CC(N)=O)C(=O)N[C@@H](CCCNC(=N)N)C(=O)N[C@@H](CCN)C(=O)N[C@@H]([C@@H](C)O)C(=O)N[C@H](CCN)C(=O)N[C@@H](CCCCN)C(=O)N[C@H](C(=O)N[C@@H](CCN)C(=O)N[C@@H](CO)C(=O)N[C@@H](Cc2ccc(O)cc2)C(=O)O)CSSC1(C)C)[C@@H](C)O` [Example 176] (HELM PEPTIDE1{V.[Hyp].I.T.Y.[Pen].N.R.[Dab].T.[NCC[C@@H](N[*:1])C(=O)[*:2]].K.C.[Dab].S.Y}$PEPTIDE1,PEPTIDE1,6:R3-13:R3$$$V2.0) was run?
**A.** 0.25 µg/mL

**Q.** And the “Escherichia coli MCR-1 Af 45 MIC” value [2]?
**A.** 0.25 µg/mL

**Q.** And the “Klebsiella pneumoniae SSI3010 MIC” value [3]?
**A.** 0.5 µg/mL

**Q.** And the “Hemolysis at 0.2 g/L” value [4]?
**A.** 0%

**Q.** Which “Escherichia coli ATCC 25922 MIC” value [1] does the source give for `CC[C@H](C)[C@H](NC(=O)[C@@H]1C[C@@H](O)CN1C(=O)[C@@H](N)C(C)C)C(=O)N[C@H](C(=O)N[C@@H](Cc1ccc(O)cc1)C(=O)N[C@@H]1C(=O)N[C@@H](CC(N)=O)C(=O)N[C@@H](CCCNC(=N)N)C(=O)N[C@@H](CCN)C(=O)N[C@@H]([C@@H](C)O)C(=O)N[C@H](CCN)C(=O)N[C@@H](CCCCN)C(=O)N[C@H](C(=O)N[C@@H](CCN)C(=O)N[C@@H](CCN)C(=O)N[C@@H](Cc2ccc(O)cc2)C(=O)O)CSSC1(C)C)[C@@H](C)O` [Example 177] (HELM PEPTIDE1{V.[Hyp].I.T.Y.[Pen].N.R.[Dab].T.[NCC[C@@H](N[*:1])C(=O)[*:2]].K.C.[Dab].[Dab].Y}$PEPTIDE1,PEPTIDE1,6:R3-13:R3$$$V2.0) here?
**A.** 0.125 µg/mL

**Q.** And the “Escherichia coli MCR-1 Af 45 MIC” value [2]?
**A.** 0.125 µg/mL

**Q.** What about the “Klebsiella pneumoniae SSI3010 MIC” value [3] of the same compound?
**A.** 0.25 µg/mL

**Q.** And the “Hemolysis at 0.2 g/L” value [4]?
**A.** 0%

**Q.** How did the “Escherichia coli ATCC 25922 MIC” value [1] turn out when `CC[C@H](C)[C@H](NC(=O)[C@@H]1C[C@@H](O)CN1C(=O)[C@@H](N)C(C)C)C(=O)N[C@H](C(=O)N[C@@H](Cc1ccc(O)cc1)C(=O)N[C@@H]1C(=O)N[C@@H](CC(N)=O)C(=O)N[C@@H](CCCNC(=N)N)C(=O)N[C@@H](CCN)C(=O)N[C@@H]([C@@H](C)O)C(=O)N[C@H](CCN)C(=O)N[C@@H](CCCCN)C(=O)N[C@H](C(=O)N[C@@H](CCN)C(=O)N[C@@H](CCCCN)C(=O)N[C@@H](Cc2ccc(O)cc2)C(=O)O)CSSC1(C)C)[C@@H](C)O` [Example 178] (HELM PEPTIDE1{V.[Hyp].I.T.Y.[Pen].N.R.[Dab].T.[NCC[C@@H](N[*:1])C(=O)[*:2]].K.C.[Dab].K.Y}$PEPTIDE1,PEPTIDE1,6:R3-13:R3$$$V2.0) was run?
**A.** 0.25 µg/mL

**Q.** What about the “Escherichia coli MCR-1 Af 45 MIC” value [2] of the same compound?
**A.** 0.125 µg/mL

**Q.** And the “Klebsiella pneumoniae SSI3010 MIC” value [3]?
**A.** 0.5 µg/mL

**Q.** What about the “Hemolysis at 0.2 g/L” value [4] of the same compound?
**A.** 0%

**Q.** Which “Escherichia coli ATCC 25922 MIC” value [1] does the source give for `CC[C@H](C)[C@H](NC(=O)[C@@H]1C[C@@H](O)CN1C(=O)[C@@H](N)C(C)C)C(=O)N[C@H](C(=O)N[C@@H](Cc1ccc(O)cc1)C(=O)N[C@@H]1C(=O)N[C@@H](CC(N)=O)C(=O)N[C@@H](CCCNC(=N)N)C(=O)N[C@@H](CCN)C(=O)N[C@@H]([C@@H](C)O)C(=O)N[C@H](CCN)C(=O)N[C@@H](CCCCN)C(=O)N[C@H](C(=O)N[C@@H](CCN)C(=O)N[C@@H](CCCN)C(=O)N[C@@H](Cc2ccc(O)cc2)C(=O)O)CSSC1(C)C)[C@@H](C)O` [Example 179] (HELM PEPTIDE1{V.[Hyp].I.T.Y.[Pen].N.R.[Dab].T.[NCC[C@@H](N[*:1])C(=O)[*:2]].K.C.[Dab].[Orn].Y}$PEPTIDE1,PEPTIDE1,6:R3-13:R3$$$V2.0) here?
**A.** 0.125 µg/mL

**Q.** What about the “Escherichia coli MCR-1 Af 45 MIC” value [2] of the same compound?
**A.** 0.0625 µg/mL

**Q.** What about the “Klebsiella pneumoniae SSI3010 MIC” value [3] of the same compound?
**A.** 0.25 µg/mL

**Q.** And the “Hemolysis at 0.2 g/L” value [4]?
**A.** 0%

**Q.** What does the source list for `CC[C@H](C)[C@H](NC(=O)[C@@H]1C[C@@H](O)CN1C(=O)[C@@H](N)C(C)C)C(=O)N[C@H](C(=O)N[C@@H](Cc1ccc(O)cc1)C(=O)N[C@@H]1C(=O)N[C@@H](CC(N)=O)C(=O)N[C@@H](CCCNC(=N)N)C(=O)N[C@@H](CCN)C(=O)N[C@@H]([C@@H](C)O)C(=O)N[C@H](CCN)C(=O)N[C@@H](CCCNC(N)=O)C(=O)N[C@H](C(=O)N[C@@H](CCN)C(=O)N[C@@H](CCCNC(=N)N)C(=O)N[C@@H](Cc2ccc(O)cc2)C(=O)O)CSSC1(C)C)[C@@H](C)O` [Example 180] (HELM PEPTIDE1{V.[Hyp].I.T.Y.[Pen].N.R.[Dab].T.[NCC[C@@H](N[*:1])C(=O)[*:2]].[Cit].C.[Dab].R.Y}$PEPTIDE1,PEPTIDE1,6:R3-13:R3$$$V2.0)?
**A.** Escherichia coli ATCC 25922 MIC [1]: 0.25 µg/mL; Escherichia coli MCR-1 Af 45 MIC [2]: 0.25 µg/mL; Klebsiella pneumoniae SSI3010 MIC [3]: 0.5 µg/mL; Hemolysis at 0.2 g/L [4]: 1%

**Q.** Which “Escherichia coli ATCC 25922 MIC” value [1] does the source give for `CC[C@H](C)[C@H](NC(=O)[C@@H]1C[C@@H](O)CN1C(=O)[C@@H](NC)C(C)C)C(=O)N[C@H](C(=O)N[C@@H](Cc1ccc(O)cc1)C(=O)N[C@@H]1C(=O)N[C@@H](CC(N)=O)C(=O)N[C@@H](CCCNC(=N)N)C(=O)N[C@@H](CCN)C(=O)N[C@@H]([C@@H](C)O)C(=O)N[C@H](CCN)C(=O)N[C@@H](CCCCN)C(=O)N[C@H](C(=O)N[C@@H](CCN)C(=O)N[C@@H](CCCNC(=N)N)C(=O)N[C@@H](Cc2ccc(O)cc2)C(=O)O)CSSC1(C)C)[C@@H](C)O` [Example 181] (HELM PEPTIDE1{[meV].[Hyp].I.T.Y.[Pen].N.R.[Dab].T.[NCC[C@@H](N[*:1])C(=O)[*:2]].K.C.[Dab].R.Y}$PEPTIDE1,PEPTIDE1,6:R3-13:R3$$$V2.0) here?
**A.** 0.125 µg/mL

**Q.** And the “Escherichia coli MCR-1 Af 45 MIC” value [2]?
**A.** 0.125 µg/mL

**Q.** What about the “Klebsiella pneumoniae SSI3010 MIC” value [3] of the same compound?
**A.** 0.25 µg/mL

**Q.** And the “Hemolysis at 0.2 g/L” value [4]?
**A.** 0%
